Measurements published in patent US20070292908A1, “Method for Detecting Streptococcus Agalactiae Using Alpha-Glucosidase Activity” (BIOMERIEUX, priority 2004, published 2007).

Columns and labels:
[1] = tested on: Streptococcus agalactiae; assay: Detection of Streptococcus agalactiae strains on reaction media containing an α-glucosidase enzymatic substrate; assay type: cell-based; details: substrate 0.1 g/l; for intensity (I) of coloration: arbitrary scale 0 to 4
Experimental: The reaction media were prepared by mixing heart-brain extract (4.84 g/l; Solabia), meat infusion (1.96 g/l; Solabia), biothione (1 g/l; Solabia), biotrypcase (7.2 g/l; Solabia), sodium carbonate (0.3 g/l; VWR), sodium pyruvate (2 g/l; Fluka), HEPES buffer (0.4 g/l; Sigma), lactalbumin peptone (2 g/l; DMV), glucose (1 g/l; Merck), American agar (2 g/l; Sobigel) and European agar (12 g/l; Roko).
The media were then poured into a Petri dish for subsequent inoculation with bacterial strains.
Eight Streptococcus agalactiae strains derived from the applicant's collection, suspended in physiological saline, were inoculated so as to give isolated colonies on each of the media. The dishes were then incubated at 37° C. for 48 hours. The colonies formed are examined visually after 18, 24 and more than 40 hours of incubation. The coloration of these colonies, the growth and also the intensity of this coloration were noted.
The results are given in table 1 below and are expressed: • in terms of growth (G) with the size being indicated in mm, • in terms of intensity (1) of coloration based on an arbitrary scale ranging from 0 to 4, 0 corresponding to an absence of activity and 4 corresponding to the presence of a very intense coloration, • in terms of color (Co) with T=turquoise, R=pink or red, Gr=green, Mg=magenta, • according to the incubation time in hours (T).

[2] = tested on: Streptococcus agalactiae; assay: Number of strains detected as a function of the concentration of α-glucosidase substrate; assay type: cell-based; details: positive when I≧0.6, 8 strains
From the text: The above protocol was repeated, with the exception that the concentration of enzymatic substrate was varied.
Table 2 below gives the number of strains detected (considered to be positive when I≧0.6) as a function of the concentration of substrate.

[3] = strain 0008200, 18 h incubation
[4] = strain 0008200, 24 h incubation
[5] = strain 0008200, >40 h incubation
[6] = strain 0008206, 18 h incubation
[7] = strain 0008206, 24 h incubation
[8] = strain 0008206, >40 h incubation
[9] = strain 0101060, 18 h incubation
[10] = strain 0101060, 24 h incubation
[11] = strain 0101060, >40 h incubation
[12] = strain 7611003, 18 h incubation
[13] = strain 7611003, 24 h incubation
[14] = strain 7611003, >40 h incubation
[15] = strain 7701031, 18 h incubation
[16] = strain 7701031, 24 h incubation
[17] = strain 7701031, >40 h incubation
[18] = strain 7702055, 18 h incubation
[19] = strain 7702055, 24 h incubation
[20] = strain 7702055, >40 h incubation
[21] = strain 8709013, 18 h incubation
[22] = strain 8709013, 24 h incubation
[23] = strain 8709013, >40 h incubation
[24] = strain 8904053, 18 h incubation
[25] = strain 8904053, 24 h incubation
[26] = strain 8904053, >40 h incubation
[27] = substrate 100 mg/l, incubation 24 h
[28] = substrate 100 mg/l, incubation 48 h
[29] = substrate 200 mg/l, incubation 24 h
[30] = substrate 200 mg/l, incubation 48 h
[31] = substrate 300 mg/l, incubation 24 h
[32] = substrate 300 mg/l, incubation 48 h

For “5-bromo-6-chloro-3-indolyl-α-D-glucopyranoside [Magenta-alpha-Glu]”, the “intensity (I) of coloration” value ([1]; strain 0008200, 18 h) was 0.5, the “growth (G), size” value [1, 3] was 0.5 mm and the “intensity (I) of coloration” value ([1]; strain 0008200, 24 h) was 0.8. For the same compound, the “growth (G), size” value [1, 4] was 0.5 mm, the “intensity (I) of coloration” value ([1]; strain 0008200, >40 h) was 3 and the “growth (G), size” value [1, 5] was 0.5 mm. For the same compound, the “intensity (I) of coloration” value ([1]; strain 0008206, 18 h) was 0.6, the “growth (G), size” value [1, 6] was 0.7 mm and the “intensity (I) of coloration” value ([1]; strain 0008206, 24 h) was 0.8. The “growth (G), size” value [1, 7] was 0.7 mm, the “intensity (I) of coloration” value ([1]; strain 0008206, >40 h) was 3 and the “growth (G), size” value [1, 8] was 0.7 mm. The “intensity (I) of coloration” value ([1]; strain 0101060, 18 h) was 2.7, the “growth (G), size” value [1, 9] was 0.4 mm and the “intensity (I) of coloration” value ([1]; strain 0101060, 24 h) was 2.7. The “growth (G), size” value [1, 10] was 0.4 mm, the “intensity (I) of coloration” value ([1]; strain 0101060, >40 h) was 4 and the “growth (G), size” value [1, 11] was 0.5 mm. For the same compound, the “intensity (I) of coloration” value ([1]; strain 7611003, 18 h) was 1, the “growth (G), size” value [1, 12] was 0.5 mm and the “intensity (I) of coloration” value ([1]; strain 7611003, 24 h) was 2. For the same compound, the “growth (G), size” value [1, 13] was 0.7 mm, the “intensity (I) of coloration” value ([1]; strain 7611003, >40 h) was 3 and the “growth (G), size” value [1, 14] was 0.7 mm. For the same compound, the “growth (G), size” value [1, 15] was 0.5 mm, the “growth (G), size” value [1, 16] was 0.5 mm and the “intensity (I) of coloration” value ([1]; strain 7701031, >40 h) was 2. For the same compound, the “growth (G), size” value [1, 17] was 0.8 mm, the “intensity (I) of coloration” value ([1]; strain 7702055, 18 h) was 0.5 and the “growth (G), size” value [1, 18] was 0.5 mm. For the same compound, the “intensity (I) of coloration” value ([1]; strain 7702055, 24 h) was 0.6, the “growth (G), size” value [1, 19] was 0.8 mm and the “intensity (I) of coloration” value ([1]; strain 7702055, >40 h) was 3. For the same compound, the “growth (G), size” value [1, 20] was 1 mm, the “intensity (I) of coloration” value ([1]; strain 8709013, 18 h) was 0.5 and the “growth (G), size” value [1, 21] was 0.4 mm. The “intensity (I) of coloration” value ([1]; strain 8709013, 24 h) was 1.3, the “growth (G), size” value [1, 22] was 0.5 mm and the “intensity (I) of coloration” value ([1]; strain 8709013, >40 h) was 2.7. For the same compound, the “growth (G), size” value [1, 23] was 0.7 mm, the “intensity (I) of coloration” value ([1]; strain 8904053, 18 h) was 0.6 and the “growth (G), size” value [1, 24] was 0.7 mm. For the same compound, the “intensity (I) of coloration” value ([1]; strain 8904053, 24 h) was 0.6, the “growth (G), size” value [1, 25] was 0.7 mm and the “intensity (I) of coloration” value ([1]; strain 8904053, >40 h) was 3. For the same compound, the “growth (G), size” value [1, 26] was 0.7 mm, the “number of strains detected” value [2, 27] was 2/8 and the “number of strains detected” value [2, 28] was 8/8. The “number of strains detected” value [2, 29] was 7/8, the “number of strains detected” value [2, 30] was 8/8 and the “number of strains detected” value [2, 31] was 7/8. For the same compound, the “number of strains detected” value [2, 32] was 8/8.
For `OC[C@H]1O[C@H](Oc2c[nH]c3cc(Br)ccc23)[C@H](O)[C@@H](O)[C@@H]1O` [RedA-alpha-Glu, 6-bromo-3-indolyl-α-D-glucopyranoside], the “intensity (I) of coloration” value ([1]; strain 0008200, 18 h) was 0.1, the “growth (G), size” value [1, 3] was 0.7 mm and the “intensity (I) of coloration” value ([1]; strain 0008200, 24 h) was 0.3. For the same compound, the “growth (G), size” value [1, 4] was 0.7 mm, the “intensity (I) of coloration” value ([1]; strain 0008200, >40 h) was 1.7 and the “growth (G), size” value [1, 5] was 0.7 mm. The “intensity (I) of coloration” value ([1]; strain 0008206, 18 h) was 0.3, the “growth (G), size” value [1, 6] was 0.7 mm and the “intensity (I) of coloration” value ([1]; strain 0008206, 24 h) was 0.5. The “growth (G), size” value [1, 7] was 0.8 mm, the “intensity (I) of coloration” value ([1]; strain 0008206, >40 h) was 2 and the “growth (G), size” value [1, 8] was 1.2 mm. For the same compound, the “intensity (I) of coloration” value ([1]; strain 0101060, 18 h) was 0.5, the “growth (G), size” value [1, 9] was 0.4 mm and the “intensity (I) of coloration” value ([1]; strain 0101060, 24 h) was 0.8. For the same compound, the “growth (G), size” value [1, 10] was 0.5 mm, the “intensity (I) of coloration” value ([1]; strain 0101060, >40 h) was 3 and the “growth (G), size” value [1, 11] was 0.7 mm. For the same compound, the “intensity (I) of coloration” value ([1]; strain 7611003, 18 h) was 0.5, the “growth (G), size” value [1, 12] was 1 mm and the “intensity (I) of coloration” value ([1]; strain 7611003, 24 h) was 0.8. The “growth (G), size” value [1, 13] was 1 mm, the “intensity (I) of coloration” value ([1]; strain 7611003, >40 h) was 2 and the “growth (G), size” value [1, 14] was 1.3 mm. The “growth (G), size” value [1, 15] was 0.5 mm, the “growth (G), size” value [1, 16] was 0.7 mm and the “intensity (I) of coloration” value ([1]; strain 7701031, >40 h) was 0.5. For the same compound, the “growth (G), size” value [1, 17] was 1.2 mm, the “growth (G), size” value [1, 18] was 0.7 mm and the “intensity (I) of coloration” value ([1]; strain 7702055, 24 h) was 0.3. For the same compound, the “growth (G), size” value [1, 19] was 1 mm, the “intensity (I) of coloration” value ([1]; strain 7702055, >40 h) was 2.3 and the “growth (G), size” value [1, 20] was 1.7 mm. For the same compound, the “growth (G), size” value [1, 21] was 0.5 mm, the “growth (G), size” value [1, 22] was 0.5 mm and the “intensity (I) of coloration” value ([1]; strain 8709013, >40 h) was 0.8. The “growth (G), size” value [1, 23] was 0.7 mm, the “growth (G), size” value [1, 24] was 0.7 mm and the “intensity (I) of coloration” value ([1]; strain 8904053, 24 h) was 0.3. The “growth (G), size” value [1, 25] was 0.7 mm, the “intensity (I) of coloration” value ([1]; strain 8904053, >40 h) was 1.7 and the “growth (G), size” value [1, 26] was 0.8 mm. For the same compound, the “number of strains detected” value [2, 27] was 1/8, the “number of strains detected” value [2, 28] was 7/8 and the “number of strains detected” value [2, 29] was 5/8. The “number of strains detected” value [2, 30] was 8/8, the “number of strains detected” value [2, 31] was 6/8 and the “number of strains detected” value [2, 32] was 8/8.
